The values that follow come from ChEMBL document CHEMBL1144750, “Scaffold oriented synthesis. Part 2: Design, synthesis and biological evaluation of pyrimido-diazepines as receptor tyrosine kinase inhibitors” (Bioorg Med Chem Lett, 2008).

The target in assay [1] is Serine/threonine-protein kinase PAK 4 (Homo sapiens, UniProt O96013). Kind of assay: Inhibition of Pak4.
Assay [2] in a line: Inhibition of CK2.
The target in assay [3] is Serine/threonine-protein kinase PLK1 (Homo sapiens, UniProt P53350). Briefly: Inhibition of Plk1.
Sequence of Serine/threonine-protein kinase PLK1 (P53350 whole entry): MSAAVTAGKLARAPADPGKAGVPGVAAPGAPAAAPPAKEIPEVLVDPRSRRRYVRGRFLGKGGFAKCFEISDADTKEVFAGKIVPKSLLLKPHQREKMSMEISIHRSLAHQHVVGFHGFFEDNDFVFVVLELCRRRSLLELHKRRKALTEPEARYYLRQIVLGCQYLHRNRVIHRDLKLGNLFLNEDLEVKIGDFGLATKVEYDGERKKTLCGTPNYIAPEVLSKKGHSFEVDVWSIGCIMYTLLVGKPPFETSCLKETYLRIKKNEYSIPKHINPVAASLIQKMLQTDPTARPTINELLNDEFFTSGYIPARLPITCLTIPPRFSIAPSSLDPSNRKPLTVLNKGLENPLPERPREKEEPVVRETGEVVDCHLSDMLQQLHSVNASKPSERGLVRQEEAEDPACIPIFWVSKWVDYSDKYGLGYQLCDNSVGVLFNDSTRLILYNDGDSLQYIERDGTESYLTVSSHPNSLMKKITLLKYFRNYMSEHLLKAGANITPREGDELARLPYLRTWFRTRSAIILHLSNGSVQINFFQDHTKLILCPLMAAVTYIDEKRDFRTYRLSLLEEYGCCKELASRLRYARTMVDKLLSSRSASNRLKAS
Assay [4] deals with T1, Vascular endothelial growth factor receptor 2 (Homo sapiens, UniProt P35968). Briefly: Inhibition of KDR in presence of 10 uM ATP.
The target in assay [5] is RAC-alpha serine/threonine-protein kinase (Homo sapiens, UniProt P31749). Briefly: Inhibition of Akt1.
Sequence of RAC-alpha serine/threonine-protein kinase (P31749 whole entry): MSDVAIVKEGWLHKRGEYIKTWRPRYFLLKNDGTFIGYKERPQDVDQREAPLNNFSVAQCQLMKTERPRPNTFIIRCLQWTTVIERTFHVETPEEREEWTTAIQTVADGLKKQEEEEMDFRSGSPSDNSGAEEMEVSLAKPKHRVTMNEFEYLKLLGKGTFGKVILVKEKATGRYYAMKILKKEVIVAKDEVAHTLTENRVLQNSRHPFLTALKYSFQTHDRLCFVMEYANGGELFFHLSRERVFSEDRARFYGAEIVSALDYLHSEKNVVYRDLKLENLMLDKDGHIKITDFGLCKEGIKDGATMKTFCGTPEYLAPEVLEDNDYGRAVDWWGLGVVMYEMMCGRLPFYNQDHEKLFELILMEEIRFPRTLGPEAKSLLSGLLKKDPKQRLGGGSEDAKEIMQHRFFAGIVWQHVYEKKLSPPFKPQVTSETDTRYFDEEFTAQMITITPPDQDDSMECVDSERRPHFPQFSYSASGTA
Assay [6] has as its target Mast/stem cell growth factor receptor Kit (Homo sapiens, UniProt P10721). Kind of assay: Inhibition of cKit.
For assay [7], the target named is T1, Vascular endothelial growth factor receptor 2. Briefly: Inhibition of KDR in presence of 1 mM ATP.
Assay [8] deals with T2, Receptor-type tyrosine-protein kinase FLT3 (Homo sapiens, UniProt P36888).
T2 sequence (P36888 whole entry): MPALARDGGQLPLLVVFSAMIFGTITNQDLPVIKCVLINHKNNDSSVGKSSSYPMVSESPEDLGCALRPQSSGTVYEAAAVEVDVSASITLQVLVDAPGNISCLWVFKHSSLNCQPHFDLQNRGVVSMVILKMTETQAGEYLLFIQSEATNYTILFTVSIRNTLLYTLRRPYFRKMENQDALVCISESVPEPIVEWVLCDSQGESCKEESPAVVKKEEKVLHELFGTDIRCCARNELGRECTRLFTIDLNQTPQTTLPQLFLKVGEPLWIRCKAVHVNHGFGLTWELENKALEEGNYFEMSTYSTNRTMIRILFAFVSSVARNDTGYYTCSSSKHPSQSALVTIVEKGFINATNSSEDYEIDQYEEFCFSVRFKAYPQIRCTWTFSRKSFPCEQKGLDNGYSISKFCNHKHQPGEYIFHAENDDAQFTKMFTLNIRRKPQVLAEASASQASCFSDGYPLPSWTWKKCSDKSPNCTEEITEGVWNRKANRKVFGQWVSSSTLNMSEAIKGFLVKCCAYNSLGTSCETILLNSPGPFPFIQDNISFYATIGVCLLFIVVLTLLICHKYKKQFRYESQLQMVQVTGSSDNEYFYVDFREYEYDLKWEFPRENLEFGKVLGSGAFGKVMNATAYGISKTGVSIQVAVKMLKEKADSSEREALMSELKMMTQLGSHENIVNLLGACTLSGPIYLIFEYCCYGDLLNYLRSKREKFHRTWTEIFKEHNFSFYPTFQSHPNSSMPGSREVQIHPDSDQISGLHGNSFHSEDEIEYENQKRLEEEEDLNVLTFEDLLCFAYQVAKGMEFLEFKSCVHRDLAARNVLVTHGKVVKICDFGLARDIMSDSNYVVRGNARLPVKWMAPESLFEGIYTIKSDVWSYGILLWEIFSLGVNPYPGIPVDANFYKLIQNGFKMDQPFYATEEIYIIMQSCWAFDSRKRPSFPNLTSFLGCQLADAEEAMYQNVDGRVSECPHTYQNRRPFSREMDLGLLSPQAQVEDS
Briefly: Inhibition of Flt3.

The target in assay [9] is Vascular endothelial growth factor receptor 2 (Mus musculus, UniProt P35918). Kind of assay: Inhibition of VEGF-induced KDR phosphorylation in mouse 3T3 cells. The assay is classed as cell-based, NIH3T3.
Sequence of Vascular endothelial growth factor receptor 2 (Mus musculus, UniProt P35918) (P35918 whole entry): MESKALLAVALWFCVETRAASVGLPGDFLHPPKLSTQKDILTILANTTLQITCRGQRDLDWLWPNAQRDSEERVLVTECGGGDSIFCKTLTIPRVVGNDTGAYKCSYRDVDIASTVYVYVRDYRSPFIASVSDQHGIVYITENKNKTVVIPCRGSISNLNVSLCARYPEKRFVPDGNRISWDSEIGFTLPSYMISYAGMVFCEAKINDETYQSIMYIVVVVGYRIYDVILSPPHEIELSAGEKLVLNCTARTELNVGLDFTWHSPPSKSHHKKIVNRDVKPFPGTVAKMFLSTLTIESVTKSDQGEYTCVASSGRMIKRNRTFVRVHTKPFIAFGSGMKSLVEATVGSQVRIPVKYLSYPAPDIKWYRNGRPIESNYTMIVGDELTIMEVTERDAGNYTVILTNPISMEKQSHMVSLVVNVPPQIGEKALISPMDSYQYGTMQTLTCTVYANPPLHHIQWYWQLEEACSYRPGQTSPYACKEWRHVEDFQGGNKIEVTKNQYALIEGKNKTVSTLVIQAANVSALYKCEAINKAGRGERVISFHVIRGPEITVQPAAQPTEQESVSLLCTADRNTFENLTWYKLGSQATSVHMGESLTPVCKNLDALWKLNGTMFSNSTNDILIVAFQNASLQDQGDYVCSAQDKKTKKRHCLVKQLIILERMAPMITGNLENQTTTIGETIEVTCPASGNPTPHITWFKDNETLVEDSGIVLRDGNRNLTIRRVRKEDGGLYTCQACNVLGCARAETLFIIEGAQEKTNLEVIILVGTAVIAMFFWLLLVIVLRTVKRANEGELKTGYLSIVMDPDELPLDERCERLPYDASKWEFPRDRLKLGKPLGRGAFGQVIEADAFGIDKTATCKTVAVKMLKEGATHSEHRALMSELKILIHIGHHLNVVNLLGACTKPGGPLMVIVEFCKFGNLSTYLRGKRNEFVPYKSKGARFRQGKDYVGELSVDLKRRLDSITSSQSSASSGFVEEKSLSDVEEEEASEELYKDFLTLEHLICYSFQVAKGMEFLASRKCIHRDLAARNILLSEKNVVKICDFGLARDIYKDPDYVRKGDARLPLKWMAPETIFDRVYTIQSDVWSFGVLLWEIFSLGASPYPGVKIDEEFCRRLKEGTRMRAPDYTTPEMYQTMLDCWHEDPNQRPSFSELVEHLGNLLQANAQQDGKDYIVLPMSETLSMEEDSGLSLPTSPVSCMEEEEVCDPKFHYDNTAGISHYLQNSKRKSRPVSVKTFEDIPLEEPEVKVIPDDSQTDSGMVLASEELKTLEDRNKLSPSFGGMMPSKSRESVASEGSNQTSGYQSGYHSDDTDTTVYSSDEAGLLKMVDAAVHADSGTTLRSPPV
Assay [10] in a line: Inhibition of CK2 at 100 uM.

Sequence of Mast/stem cell growth factor receptor Kit (P10721 whole entry): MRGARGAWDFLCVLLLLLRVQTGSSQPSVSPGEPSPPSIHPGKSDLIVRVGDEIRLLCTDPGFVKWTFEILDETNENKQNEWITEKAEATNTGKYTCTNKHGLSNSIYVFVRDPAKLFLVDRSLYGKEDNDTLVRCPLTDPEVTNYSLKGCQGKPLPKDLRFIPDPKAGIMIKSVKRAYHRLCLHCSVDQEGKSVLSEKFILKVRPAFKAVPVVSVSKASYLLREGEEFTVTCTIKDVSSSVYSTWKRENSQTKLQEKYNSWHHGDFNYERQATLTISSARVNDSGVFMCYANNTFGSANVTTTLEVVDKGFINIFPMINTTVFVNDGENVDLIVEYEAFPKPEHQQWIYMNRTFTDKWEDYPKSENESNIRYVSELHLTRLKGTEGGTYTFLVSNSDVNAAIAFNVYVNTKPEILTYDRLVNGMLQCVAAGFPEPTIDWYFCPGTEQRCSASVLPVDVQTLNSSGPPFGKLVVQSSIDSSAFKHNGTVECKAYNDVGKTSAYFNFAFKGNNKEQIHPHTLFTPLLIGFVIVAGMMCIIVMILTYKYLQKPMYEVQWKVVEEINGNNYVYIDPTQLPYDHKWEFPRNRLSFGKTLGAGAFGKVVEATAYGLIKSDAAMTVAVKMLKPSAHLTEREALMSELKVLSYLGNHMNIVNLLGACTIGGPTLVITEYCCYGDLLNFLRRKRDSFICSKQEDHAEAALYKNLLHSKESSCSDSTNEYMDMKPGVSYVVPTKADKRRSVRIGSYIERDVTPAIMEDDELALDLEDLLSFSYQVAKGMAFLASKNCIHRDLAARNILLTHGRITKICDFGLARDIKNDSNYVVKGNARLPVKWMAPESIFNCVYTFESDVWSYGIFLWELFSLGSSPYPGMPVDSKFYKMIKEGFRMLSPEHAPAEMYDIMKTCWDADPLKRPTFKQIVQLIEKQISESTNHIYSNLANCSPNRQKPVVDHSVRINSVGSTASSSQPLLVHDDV
Sequence of Serine/threonine-protein kinase PAK 4 (O96013 whole entry): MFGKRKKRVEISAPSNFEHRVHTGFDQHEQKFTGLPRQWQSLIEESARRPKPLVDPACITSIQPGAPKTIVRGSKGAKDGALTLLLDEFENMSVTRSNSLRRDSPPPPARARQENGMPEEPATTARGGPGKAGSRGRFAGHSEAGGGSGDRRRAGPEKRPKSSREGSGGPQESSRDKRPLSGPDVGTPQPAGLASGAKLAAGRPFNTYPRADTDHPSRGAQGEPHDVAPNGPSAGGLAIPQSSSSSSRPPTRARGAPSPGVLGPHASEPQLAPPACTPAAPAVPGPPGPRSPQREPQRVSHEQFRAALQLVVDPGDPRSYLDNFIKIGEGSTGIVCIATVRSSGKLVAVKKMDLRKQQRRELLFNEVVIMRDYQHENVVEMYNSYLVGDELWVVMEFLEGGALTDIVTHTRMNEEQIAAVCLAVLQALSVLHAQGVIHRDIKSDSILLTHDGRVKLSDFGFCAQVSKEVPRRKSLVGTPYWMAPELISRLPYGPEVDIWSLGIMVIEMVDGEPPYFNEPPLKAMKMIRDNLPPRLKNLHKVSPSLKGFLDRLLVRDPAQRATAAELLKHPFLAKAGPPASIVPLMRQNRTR

For orientation: IC50 means the concentration that inhibits the measured activity by half. For `Nc1nc(N)c2c(n1)NCCC(c1ccccc1)=N2`, the IC50 in [1] is above 100000 nM; in [2] it was above 100000 nM; in assay [3] it was above 100000 nM; in assay [4] it was 35000 nM; in [5], above 100000 nM.

`Cc1cccc(C2=Nc3c(N)ncnc3NCC2)c1`: the 50% inhibitory concentration (IC50) in [1] is above 100000 nM; in assay [2], 12000 nM; in assay [3] it was 50000 nM; in [4], 3000 nM; in assay [5], above 100000 nM.

Consider `Nc1ncnc2c1N=C(c1ccc(NC(=O)Nc3cccc(C(F)(F)F)c3F)cc1)CCN2`, for which the IC50 in [6] stood at 28 nM; in assay [7], 49 nM; in assay [8] it was 3 nM; in [9] it was 1520 nM.

Regarding `Nc1ncnc2c1N=C(c1ccc(NC(=O)Nc3cc(C(F)(F)F)ccc3F)cc1)CCN2`, the half-inhibitory concentration (IC50) in [7] was 4 nM; in [9], 121 nM.

As to `Nc1ncnc2c1N=C(c1ccc(Cl)cc1)CCN2`, the concentration for half-maximal inhibition (IC50) in assay [1] was above 100000 nM; in [2], above 100000 nM; in assay [3], above 100000 nM; in assay [4], 3000 nM; in assay [5], above 100000 nM.

`Nc1ncnc2c1N=C(c1cccc(NC(=O)Nc3ccccc3)c1)CCN2`: the half-maximal inhibitory concentration (IC50) was 3020 nM in assay [6], 888 nM in assay [7] and 2700 nM in assay [8].

In general, inhibition refers to the relative decrease from the control value, in per cent. Higher therefore signals a response far below the control. Consider `Nc1ncnc2c1N=C(c1cccc(Cl)c1)CCN2`, for which the IC50 in assay [1] is above 100000 nM; in [3], above 100000 nM; in [4], 600 nM; in assay [5] it was above 100000 nM. Further, the inhibition in [10] was determined as 64%.

Take `Nc1nc(N)c2c(n1)NCCC(c1cccc(Cl)c1)=N2`: the IC50 is above 100000 nM in assay [1], above 100000 nM in assay [3], 21000 nM in [4] and above 100000 nM in [5].

On to `Nc1ncnc2c1N=C(c1ccc(NC(=O)Nc3ccc(Cl)c(C(F)(F)F)c3)cc1)CCN2`, for which the IC50 stood at 50 nM in assay [6], 6 nM in assay [7], 16 nM in [8] and 49 nM in [9].

Consider `Nc1nc(N)c2c(n1)NCCC(c1ccc(Cl)cc1)=N2`, for which the half-inhibitory concentration (IC50) in [1] is above 100000 nM; in [2], above 100000 nM; in assay [3], above 100000 nM; in assay [4] it was 9000 nM; in assay [5], above 100000 nM.

Regarding `Cc1ccc(C2=Nc3c(N)ncnc3NCC2)cc1`, the IC50 in assay [1] is above 100000 nM; in assay [2], above 100000 nM; in assay [3], above 100000 nM; in assay [4], 4000 nM; in assay [5] it was above 100000 nM.

In the case of `Nc1ncnc2c1N=C(c1ccccc1)CCN2`, the half-maximal inhibitory concentration (IC50) in assay [1] is above 100000 nM; in assay [2] it was 4000 nM; in assay [3] it was above 100000 nM; in assay [4] it was 3000 nM; in assay [5], 92000 nM.

In the case of `Cc1ccc(F)c(NC(=O)Nc2ccc(C3=Nc4c(N)ncnc4NCC3)cc2)c1`, the 50% inhibitory concentration (IC50) stood at 37 nM in [6], 65 nM in [7], 13 nM in [8] and 311 nM in [9].

Turning to `Nc1ncnc2c1N=C(c1ccc(NC(=O)Nc3cccc(C(F)(F)F)c3)cc1)CCN2`, the IC50 in assay [7] came out at 3 nM; in assay [8] it was 2 nM; in assay [9], 13 nM.

Take `Nc1ncnc2c1N=C(c1ccc(NC(=O)Nc3cccc(Cl)c3)cc1)CCN2`: the half-inhibitory concentration (IC50) was 18 nM in assay [6], 19 nM in assay [7], 6 nM in [8] and 50 nM in assay [9].

Consider `Nc1ncnc2c1N=C(c1ccc(NC(=O)Nc3ccccc3)cc1)CCN2`, for which the IC50 in [7] was 951 nM.

With `Nc1ncnc2c1N=C(c1cccc(NC(=O)Nc3cccc(C(F)(F)F)c3)c1)CCN2`, the IC50 in assay [6] was found to be 91 nM; in [9] it was 790 nM.

In the case of `Cc1ccc(C2=Nc3c(N)ncnc3NCC2)cc1NC(=O)Nc1cccc(C(F)(F)F)c1`, the values for the half-inhibitory concentration (IC50) in [6] and in assay [9] were 12 nM and 52 nM, respectively.

As for `Nc1ncnc2c1N=C(c1ccc(NC(=O)Nc3ccc(F)c(C(F)(F)F)c3)cc1)CCN2`, the concentration for half-maximal inhibition (IC50) was determined as 22 nM in assay [6], 5 nM in assay [7], 7 nM in [8] and 345 nM in [9].

On to `Nc1nc(N)c2c(n1)NCCC(c1ccc(NC(=O)Nc3ccccc3)cc1)=N2`, for which the IC50 in assay [6] is above 13000 nM; in assay [7], 2860 nM; in [8] it was 2860 nM.

Consider `Nc1ncnc2c1N=C(c1ccc(NC(=O)Nc3ccc(C(F)(F)F)cc3)cc1)CCN2`, for which the IC50 in [6] came out at 35 nM; in assay [7] it was 110 nM; in assay [8], 9 nM; in assay [9] it was 2440 nM.
